The values that follow come from patent publication US7625894B2, “Pyrrolo[2,3-d]Pyrimidines as Protein Tyrosine Kinase Inhibitors” (Novartis AG, priority 2004, dated 2009).

A value given as a limit tells only on which side of the number the result lay.

The target of one data set is EGF-R (HER-1) (Homo sapiens, UniProt P00533). The data set can be described thus: Inhibition of the tyrosine kinase activity of EGF-R (HER-1). The class given is biochemical. On the set-up: dose or concentration left out as unconfirmed.
The target in the next data set is T1, c-Raf-1 (Homo sapiens, UniProt P04049).
T1 construct: made in house; host or cells: Sf21 insect cells, triple baculovirus infection (GST-c-Raf-1, v-Ras, v-Src)
The data set can be described thus: c-Raf-1 protein kinase assay. The class given is biochemical. On the set-up: dose or concentration left out as unconfirmed. The protocol: c-Raf-1 protein kinase assay: Recombinant c-Raf-1 protein is obtained by triple infection of Sf21 cells with GST-c-Raf-1 recombinant baculovirus together with v-Src and v-Ras recombinant baculoviruses that are required for active c-Raf-1 kinase production (Williams et al., PNAS 1992; 89:2922-6). Active Ras (v-Ras) is required to recruit c-Raf-1 to the cell membrane and v-Src to phosphorylate c-Raf-1 to fully activate it. Cells are seeded at 2.5×10^7 cells per 150 mm dish and allowed to attach to a 150 mm dish for 1 hr at RT. Media (SF900II containing 10% FBS) is aspirated and recombinant baculovirus GST-c-Raf-1, v-Ras and v-Src are added at MOI of 3.0, 2.5 and 2.5, respectively, in a total volume of 4-5 mL. Cells are incubated for 1 hr at RT and then 15 mL of medium is added. Infected cells are incubated for 48-72 hr at 27° C. Infected Sf21 cells are scraped and collected into a 50 mL tube and centrifuged for 10 min at 4° C. at 1100 g in a Sorvall centrifuge. The cell pellet is washed once with ice cold PBS and lysed with 0.6 mL lysis buffer per 2.5×10^7 cells. Complete lysis of cells is achieved after 10 min on ice with occasional pipetting. The cell lysates are centrifuged for 10 min at 4° C. at 14,500 g in a Sorvall centrifuge with SS-34 rotor and the supernatant is transferred to a fresh tube and stored at −80° C. c-Raf-1 is purified from cell lysates using 100 μL of packed glutathione-sepharose 4B beads equilibrated in ice cold PBS per 2.5×10^7 cells. GST-c-Raf-1 is allowed to bind to the beads at 4° C. for 1 hr with rocking. Bound GST-c-Raf-1 with beads is transferred to a column. The column is washed once with lysis buffer and twice with ice cold Tris buffered saline. Ice cold elution buffer is added and column flow is stopped to allow the free glutathione to disrupt the interaction of GST-c-Raf-1 with glutathione sepharose beads. Fractions (1 mL) are collected into pre-chilled tubes. Each tube contains 10% glycerol (final concentration) to maintain kinase activity during freeze thaw cycles. Purified fractions of GST-c-Raf-1 kinase protein are stored at −80° C.
IκB is used as substrate for the c-Raf-1 kinase. IκB is expressed in bacteria as a His-tagged protein BL21. LysS bacteria containing the IκB plasmid are grown to an OD600 of 0.6 in LB medium, then induced to express the IκB with IPTG (final concentration of 1 mM) for 3 hrs at 37° C. and then bacteria are lysed by sonication (microtip limit setting for 3 times at 1 min each in sonication buffer [50 mM Tris pH 8.0, 1 mM DTT, 1 mM EDTA] and centrifuged at 10,000 g for 15 min. The supernatant is mixed with ammonium sulfate to give a final concentration of 30%. This mixture is rocked for 15 min at 4 C then spun at 10,000 g for 15 min. The pellet is resuspended in binding buffer (Novagen) containing 10 mM BSA. This solution is applied to Ni-agarose (Novagen) and washed according to the Novagen manual. IκB is eluted from the column using elution buffer (0.4 M imidazole, 0.2 M NaCl, 8 mM Tris pH 7.9). Fractions containing protein are dialysed in 50 mM Tris pH 8, 1 mM DTT. The activity of c-Raf-1 protein kinase is assayed in the presence or absence of inhibitors, by measuring the incorporation of ^33P from [γ^33P] ATP into IκB. The assay is carried out in 96-well plates at ambient temperature for 60 min. It contains (total volume of 30 μL): c-Raf-1 kinase (400 ng), 25 mM Tris.HCl, pH 7.5, 5 mM MgCl2, 5 mM MnCl2, 10 μM Na3VO4, 1 mM DTT and 0.3 μCi/assay [γ^33P]-ATP (10 μM ATP) using 600 ng IκB in the presence of 1% DMSO. Reactions are terminated by adding 10 μL of 250 mM EDTA and 30 μL of the reaction mixture is transferred onto Immobilon-PVDF membrane (Millipore, Bedford, Mass., USA) previously soaked for 5 min with methanol, rinsed with water, then soaked for 5 min with 0.5% H3PO4 and mounted on vacuum manifold with disconnected vacuum source. After spotting all samples, vacuum is connected and each well rinsed with 200 μL 0.5% H3PO4. […]

Data set [1] concerns the target c-erbB2 tyrosine kinase (HER-2) (Homo sapiens, UniProt P04626). Kind of data set: Inhibition of c-erbB2 tyrosine kinase (HER-2). The class given is biochemical. More on the design: dose or concentration left out as unconfirmed. An excerpt: The inhibition of c-erbB2 tyrosine kinase (HER-2) can be measured, for example, in the same way as the inhibition of EGF-R protein kinase, using known procedures.

Sequence of c-erbB2 tyrosine kinase (HER-2) (P04626 23-1255): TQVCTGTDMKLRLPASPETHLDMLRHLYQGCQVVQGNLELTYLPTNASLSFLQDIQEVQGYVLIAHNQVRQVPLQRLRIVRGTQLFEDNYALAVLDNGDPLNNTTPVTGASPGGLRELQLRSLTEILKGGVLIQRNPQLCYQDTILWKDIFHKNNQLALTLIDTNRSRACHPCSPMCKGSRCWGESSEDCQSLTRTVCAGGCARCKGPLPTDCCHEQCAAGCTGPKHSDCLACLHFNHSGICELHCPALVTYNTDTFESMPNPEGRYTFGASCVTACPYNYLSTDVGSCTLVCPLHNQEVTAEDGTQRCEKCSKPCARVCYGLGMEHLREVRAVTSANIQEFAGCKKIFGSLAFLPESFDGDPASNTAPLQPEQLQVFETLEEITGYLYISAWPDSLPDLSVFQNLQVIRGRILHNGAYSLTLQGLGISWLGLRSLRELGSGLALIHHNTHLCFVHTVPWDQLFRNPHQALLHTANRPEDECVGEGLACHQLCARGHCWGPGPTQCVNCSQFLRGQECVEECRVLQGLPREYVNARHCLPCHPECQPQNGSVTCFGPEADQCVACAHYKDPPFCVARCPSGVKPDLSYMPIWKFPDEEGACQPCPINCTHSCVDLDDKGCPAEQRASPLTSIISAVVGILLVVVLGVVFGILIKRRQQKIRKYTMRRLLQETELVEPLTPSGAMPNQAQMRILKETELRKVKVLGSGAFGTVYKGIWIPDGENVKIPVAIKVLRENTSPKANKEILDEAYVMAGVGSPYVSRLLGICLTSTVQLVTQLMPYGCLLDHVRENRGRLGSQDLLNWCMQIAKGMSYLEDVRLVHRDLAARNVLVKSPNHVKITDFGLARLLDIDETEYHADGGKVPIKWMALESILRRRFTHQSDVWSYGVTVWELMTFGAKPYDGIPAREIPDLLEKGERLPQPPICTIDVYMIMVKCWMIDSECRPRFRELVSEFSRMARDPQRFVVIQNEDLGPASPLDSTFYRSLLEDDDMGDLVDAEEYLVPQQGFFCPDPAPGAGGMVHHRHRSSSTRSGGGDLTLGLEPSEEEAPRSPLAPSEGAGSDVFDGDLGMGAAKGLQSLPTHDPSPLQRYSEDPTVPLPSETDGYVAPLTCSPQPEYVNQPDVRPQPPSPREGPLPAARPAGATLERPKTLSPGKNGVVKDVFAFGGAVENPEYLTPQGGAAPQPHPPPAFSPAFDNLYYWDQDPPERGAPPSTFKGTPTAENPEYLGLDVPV
T1 sequence (P04049 whole entry): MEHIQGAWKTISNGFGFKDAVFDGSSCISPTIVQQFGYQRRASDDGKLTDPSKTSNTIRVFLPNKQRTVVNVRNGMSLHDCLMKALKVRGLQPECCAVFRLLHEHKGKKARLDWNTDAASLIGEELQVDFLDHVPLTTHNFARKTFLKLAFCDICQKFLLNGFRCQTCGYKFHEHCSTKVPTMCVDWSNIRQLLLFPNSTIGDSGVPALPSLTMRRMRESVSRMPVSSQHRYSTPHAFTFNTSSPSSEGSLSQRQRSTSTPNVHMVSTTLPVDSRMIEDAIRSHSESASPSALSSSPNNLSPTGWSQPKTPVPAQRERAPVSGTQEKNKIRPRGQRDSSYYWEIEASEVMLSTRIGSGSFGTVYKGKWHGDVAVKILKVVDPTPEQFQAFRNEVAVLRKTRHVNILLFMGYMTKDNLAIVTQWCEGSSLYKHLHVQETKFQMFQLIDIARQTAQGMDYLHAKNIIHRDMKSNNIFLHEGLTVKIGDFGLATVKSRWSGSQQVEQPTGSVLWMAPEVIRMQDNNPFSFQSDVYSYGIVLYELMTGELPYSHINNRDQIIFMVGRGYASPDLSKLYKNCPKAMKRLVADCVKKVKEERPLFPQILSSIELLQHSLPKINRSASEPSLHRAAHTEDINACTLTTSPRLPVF
Sequence of EGF-R (HER-1) (P00533 25-1210): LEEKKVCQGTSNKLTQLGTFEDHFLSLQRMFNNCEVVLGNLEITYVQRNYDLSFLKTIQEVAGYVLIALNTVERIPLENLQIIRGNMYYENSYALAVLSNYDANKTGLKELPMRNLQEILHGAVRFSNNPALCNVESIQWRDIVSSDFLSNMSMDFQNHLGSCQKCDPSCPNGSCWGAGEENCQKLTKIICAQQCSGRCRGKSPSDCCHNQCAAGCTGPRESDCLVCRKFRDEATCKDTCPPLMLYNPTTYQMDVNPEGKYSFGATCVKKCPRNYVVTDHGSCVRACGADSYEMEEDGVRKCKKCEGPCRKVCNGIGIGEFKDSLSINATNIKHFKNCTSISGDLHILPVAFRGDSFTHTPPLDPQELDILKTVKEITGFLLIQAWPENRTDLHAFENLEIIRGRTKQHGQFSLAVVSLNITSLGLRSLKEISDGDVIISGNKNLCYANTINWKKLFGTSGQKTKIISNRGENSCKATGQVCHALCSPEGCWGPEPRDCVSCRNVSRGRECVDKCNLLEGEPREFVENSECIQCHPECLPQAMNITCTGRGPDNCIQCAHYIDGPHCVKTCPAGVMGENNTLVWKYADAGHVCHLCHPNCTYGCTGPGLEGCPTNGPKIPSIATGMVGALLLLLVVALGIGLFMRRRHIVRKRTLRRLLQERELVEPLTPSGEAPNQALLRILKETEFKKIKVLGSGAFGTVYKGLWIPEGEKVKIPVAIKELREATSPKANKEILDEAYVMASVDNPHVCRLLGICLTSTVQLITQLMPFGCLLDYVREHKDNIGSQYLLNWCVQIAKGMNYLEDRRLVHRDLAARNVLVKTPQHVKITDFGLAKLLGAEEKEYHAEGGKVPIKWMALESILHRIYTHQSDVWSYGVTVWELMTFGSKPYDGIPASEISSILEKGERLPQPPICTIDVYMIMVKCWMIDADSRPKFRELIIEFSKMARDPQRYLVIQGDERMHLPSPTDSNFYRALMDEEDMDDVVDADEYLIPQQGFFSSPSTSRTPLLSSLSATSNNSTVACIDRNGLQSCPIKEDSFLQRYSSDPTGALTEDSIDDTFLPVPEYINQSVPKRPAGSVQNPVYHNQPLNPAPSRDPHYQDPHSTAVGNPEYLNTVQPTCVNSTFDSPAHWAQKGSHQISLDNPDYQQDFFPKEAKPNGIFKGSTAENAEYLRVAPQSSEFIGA

For orientation: melting point means the temperature of the solid-liquid transition. Turning to `COCCN(C)Cc1ccc(-c2cc3c(N(C)C)ncnc3[nH]2)cc1` [Example 29, [6-(4-{[(2-Methoxy-ethyl)-methyl-amino]-methyl}-phenyl)-7H-pyrrolo[2,3-d]pyrimidin-4-yl]-dimethyl-amine], the melting point lay in the range of 157 to 158 °C. Besides, the “HER-1/ %-inh. [%]” value at EGF-R (HER-1) came out at 79%. For the same compound, on c-Raf-1, the “c-Raf-1/ %-inh. [%]” value is recorded as 77%. Besides, the “HER-2/%-inh. [%]” value in data set [1] came to 79%.

Consider `CCC(O)(CC)c1ccc(-c2cc3c(NCCCn4cccc4)ncnc3[nH]2)cc1` [Example 33, 3-{4-[4-(3-Pyrrol-1-yl-propylamino)-7H-pyrrolo[2,3-d]pyrimidin-6-yl]-phenyl}-pentan-3-ol], for which the melting point was 180 to 182 °C. The “HER-1/ %-inh. [%]” value at EGF-R (HER-1) came out at 98%. Also, the “c-Raf-1/ %-inh. [%]” value at c-Raf-1 amounted to 48%. Further, in data set [1], the “HER-2/%-inh. [%]” value stood at 88%.

In turn, `CN(C)c1ncnc2[nH]c(-c3ccc(C(C)(C)O)cc3)cc12` [Example 34, 2-[4-(4-Dimethylamino-7H-pyrrolo[2,3-d]pyrimidin-6-yl)-phenyl]-propan-2-ol] gave a melting point above 300 °C. The “HER-1/ %-inh. [%]” value on EGF-R (HER-1) amounted to 54%. The “c-Raf-1/ %-inh. [%]” value on c-Raf-1 worked out at 50%. The “HER-2/%-inh. [%]” value in data set [1] is 57%.
